Patent EP4755888A1 (ILAb Co., Ltd., priority 2023, dated 2025)

Target: PD-1/PD-L1 (Homo sapiens, UniProt Q9NZQ7)
Test: TR-FRET PD-1/PD-L1 binding inhibition at the molecular level (free proteins)
Conditions: Tag1-PD-L1 and Tag2-PD-1 proteins, twelve concentrations from 200 nM, 2 hours at room temperature, read-out: FRET assay (IC50)
Summary of the method: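 HTRF read-out at 665/620 nm after 2 h at room temperature. Detection used anti-Tag1 Eu cryptate plus anti-Tag2 XL665 antibodies. Tagged PD-L1 and PD-1 proteins were pre-mixed with compound across twelve […] 1:2 dilutions starting at 200 nM.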

Chain of PD-1/PD-L1 (Q9NZQ7 19-238 limits assumed): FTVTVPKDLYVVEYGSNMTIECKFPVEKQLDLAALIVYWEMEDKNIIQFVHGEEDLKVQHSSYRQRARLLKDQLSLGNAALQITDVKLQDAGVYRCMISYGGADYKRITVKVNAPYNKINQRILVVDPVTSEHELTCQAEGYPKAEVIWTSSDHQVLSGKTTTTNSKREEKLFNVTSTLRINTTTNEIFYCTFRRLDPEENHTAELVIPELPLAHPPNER

SMILES	IC50 [nM]
COc1cc(C(=O)Nc2cccc(-c3cccc(NC(=O)c4cc5n(n4)CCCC5NCC(=O)O)c3Cl)c2Cl)cc(F)c1CNCCO (centres unmarked) [Compound 190, 2-((2-((2,2'-dichloro-3'-(3-fluoro-4-(((2-hydroxyethyl)amino)methyl)-5-methoxybenzamido)-[1,1'-biphenyl]-3-yl)carbamoyl)-4,5,6,7-tetrahydropyrazolo[1,5-a]pyridin-4-yl)amino)acetic acid]	< 10
COc1cc(C(=O)Nc2cccc(-c3cccc(NC(=O)c4cc5n(n4)CCCC5NCC(=O)O)c3Cl)c2Cl)cc(F)c1CNCC(=O)O (centres unmarked) [Compound 191, 2-((4-((3'-(4-((carboxymethyl)amino)-4,5,6,7-tetrahydropyrazolo[1,5-a]pyridine-2-carboxamido)-2,2'-dichloro-[1,1'-biphenyl]-3-yl)carbamoyl)-2-fluoro-6-methoxybenzyl)amino)acetic acid]	< 10
COc1cc(C(=O)Nc2cccc(-c3cccc(NC(=O)c4cc5n(n4)CCCC5N4CC[C@@H](C(=O)O)C4)c3Cl)c2Cl)cc(F)c1CNCCO (stereo partly drawn) [Compound 194, (3R)-1-(2-((2,2'-dichloro-3'-(3-fluoro-4-(((2-hydroxyethyl)amino)methyl)-5-methoxybenzamido)-[1,1'-biphenyl]-3-yl)carbamoyl)-4,5,6,7-tetrahydropyrazolo[1,5-a]pyridin-4-yl)pyrrolidine-3-carboxylic acid]	< 10
COc1cc(C(=O)Nc2cccc(-c3cccc(NC(=O)c4cc5n(n4)CCCC5N4CC[C@@H](C(=O)O)C4)c3Cl)c2Cl)cc(F)c1CNCC(=O)O (stereo partly drawn) [Compound 195, (3R)-1-(2-((3'-(4-(((carboxymethyl)amino)methyl)-3-fluoro-5-methoxybenzamido)-2,2'-dichloro-[1,1'-biphenyl]-3-yl)carbamoyl)-4,5,6,7-tetrahydropyrazolo[1,5-a]pyridin-4-yl)pyrrolidine-3-carboxylic acid]	< 10
COc1cc(C(=O)Nc2cccc(-c3cccc(NC(=O)c4cc5n(n4)CCCC5N4CC[C@@H](C(=O)O)C4)c3Cl)c2Cl)cc(F)c1CN1CC[C@@H](O)C1 (stereo partly drawn) [Compound 196, (3R)-1-(2-((2,2'-dichloro-3'-(3-fluoro-4-(((R)-3-hydroxypyrrolidin-1-yl)methyl)-5-methoxybenzamido)-[1,1'-biphenyl]-3-yl)carbamoyl)-4,5,6,7-tetrahydropyrazolo[1,5-a]pyridin-4-yl)pyrrolidine-3-carboxylic acid]	< 10
COc1cc(C(=O)Nc2cccc(-c3cccc(NC(=O)c4cc5n(n4)CCCC5N4CC[C@@H](C(=O)O)C4)c3Cl)c2Cl)cc(F)c1CN1CC[C@@H](C(=O)O)C1 (stereo partly drawn) [Compound 197, (3R)-1-(4-((3'-(4-((R)-3-carboxypyrrolidin-1-yl)-4,5,6,7-tetrahydropyrazolo[1,5-a]pyridine-2-carboxamido)-2,2'-dichloro-[1,1'-biphenyl]-3-yl)carbamoyl)-2-fluoro-6-methoxybenzyl)pyrrolidine-3-carboxylic acid]	10 to 100
O=C(O)CNC1CCCn2nc(C(=O)Nc3cccc(-c4cccc(NC(=O)c5ccc(CNCCO)c(F)n5)c4Cl)c3Cl)cc21 (centres unmarked) [Compound 198, 2-((2-((2,2'-dichloro-3'-(6-fluoro-5-(((2-hydroxyethyl)amino)methyl)picolinamido)-[1,1'-biphenyl]-3-yl)carbamoyl)-4,5,6,7-tetrahydropyrazolo[1,5-a]pyridin-4-yl)amino)acetic acid]	< 10
O=C(Nc1cccc(-c2cccc(NC(=O)c3cc4n(n3)CCCC4N3CC[C@@H](C(=O)O)C3)c2Cl)c1Cl)c1ccc(CNCCO)c(F)n1 (stereo partly drawn) [Compound 199, (3R)-1-(2-((2,2'-dichloro-3'-(6-fluoro-5-(((2-hydroxyethyl)amino)methyl)picolinamido)-[1,1'-biphenyl]-3-yl)carbamoyl)-4,5,6,7-tetrahydropyrazolo[1,5-a]pyridin-4-yl)pyrrolidine-3-carboxylic acid]	< 10
O=C(O)CNC1CCCn2nc(C(=O)Nc3cccc(-c4cccc(NC(=O)c5ncc(CNCCO)cc5F)c4Cl)c3Cl)cc21 (centres unmarked) [Compound 200, 2-((2-((2,2'-dichloro-3'-(3-fluoro-5-(((2-hydroxyethyl)amino)methyl)picolinamido)-[1,1'-biphenyl]-3-yl)carbamoyl)-4,5,6,7-tetrahydropyrazolo[1,5-a]pyridin-4-yl)amino)acetic acid]	< 10
O=C(Nc1cccc(-c2cccc(NC(=O)c3cc4n(n3)CCCC4N3CC[C@@H](C(=O)O)C3)c2Cl)c1Cl)c1ccc(CN2CC[C@@H](O)C2)c(F)n1 (stereo partly drawn) [Compound 203, (3R)-1-(2-((2,2'-dichloro-3'-(6-fluoro-5-(((R)-3-hydroxypyrrolidin-1-yl)methyl)picolinamido)-[1,1'-biphenyl]-3-yl)carbamoyl)-4,5,6,7-tetrahydropyrazolo[1,5-a]pyridin-4-yl)pyrrolidine-3-carboxylic acid]	< 10

Now from value to compound:

IC50 [nM]	SMILES
< 10	COc1cc(C(=O)Nc2cccc(-c3cccc(NC(=O)c4cc5n(n4)CCCC5NCC(=O)O)c3Cl)c2Cl)cc(F)c1CN1CC[C@@H](O)C1 (stereo partly drawn) [Compound 192, 2-((2-((2,2'-dichloro-3'-(3-fluoro-4-(((R)-3-hydroxypyrrolidin-1-yl)methyl)-5-methoxybenzamido)-[1,1'-biphenyl]-3-yl)carbamoyl)-4,5,6,7-tetrahydropyrazolo[1,5-a]pyridin-4-yl)amino)acetic acid]
< 10	COc1cc(C(=O)Nc2cccc(-c3cccc(NC(=O)c4cc5n(n4)CCCC5NCC(=O)O)c3Cl)c2Cl)cc(F)c1CN1CC[C@@H](C(=O)O)C1 (stereo partly drawn) [Compound 193, (3R)-1-(4-((3'-(4-((carboxymethyl)amino)-4,5,6,7-tetrahydropyrazolo[1,5-a]pyridine-2-carboxamido)-2,2'-dichloro-[1,1'-biphenyl]-3-yl)carbamoyl)-2-fluoro-6-methoxybenzyl)pyrrolidine-3-carboxylic acid]
< 10	O=C(Nc1cccc(-c2cccc(NC(=O)c3ncc(CNCCO)cc3F)c2Cl)c1Cl)c1cc2n(n1)CCCC2N1CC[C@@H](C(=O)O)C1 (stereo partly drawn) [Compound 201, (3R)-1-(2-((2,2'-dichloro-3'-(3-fluoro-5-(((2-hydroxyethyl)amino)methyl)picolinamido)-[1,1'-biphenyl]-3-yl)carbamoyl)-4,5,6,7-tetrahydropyrazolo[1,5-a]pyridin-4-yl)pyrrolidine-3-carboxylic acid]
< 10	O=C(O)CNC1CCCn2nc(C(=O)Nc3cccc(-c4cccc(NC(=O)c5ccc(CN6CC[C@@H](O)C6)c(F)n5)c4Cl)c3Cl)cc21 (stereo partly drawn) [Compound 202, 2-((2-((2,2'-dichloro-3'-(6-fluoro-5-(((R)-3-hydroxypyrrolidin-1-yl)methyl)picolinamido)-[1,1'-biphenyl]-3-yl)carbamoyl)-4,5,6,7-tetrahydropyrazolo[1,5-a]pyridin-4-yl)amino)acetic acid]
< 10	O=C(O)CNC1CCCn2nc(C(=O)Nc3cccc(-c4cccc(NC(=O)c5ncc(CN6CC[C@@H](O)C6)cc5F)c4Cl)c3Cl)cc21 (stereo partly drawn) [Compound 204, 2-((2-((2,2'-dichloro-3'-(3-fluoro-5-(((R)-3-hydroxypyrrolidin-1-yl)methyl)picolinamido)-[1,1'-biphenyl]-3-yl)carbamoyl)-4,5,6,7-tetrahydropyrazolo[1,5-a]pyridin-4-yl)amino)acetic acid]
< 10	O=C(Nc1cccc(-c2cccc(NC(=O)c3ncc(CN4CC[C@@H](O)C4)cc3F)c2Cl)c1Cl)c1cc2n(n1)CCCC2N1CC[C@@H](C(=O)O)C1 (stereo partly drawn) [Compound 205, (3R)-1-(2-((2,2'-dichloro-3'-(3-fluoro-5-(((R)-3-hydroxypyrrolidin-1-yl)methyl)picolinamido)-[1,1'-biphenyl]-3-yl)carbamoyl)-4,5,6,7-tetrahydropyrazolo[1,5-a]pyridin-4-yl)pyrrolidine-3-carboxylic acid]
10 to 100	O=C(Nc1cccc(-c2cccc(Nc3nccc4cc(CN5CC[C@@H](O)C5)cnc34)c2Cl)c1Cl)c1cc2n(n1)CCCC2N1CC[C@@H](C(=O)O)C1 (stereo partly drawn) [Compound 228, (3R)-1-(2-((2,2'-dichloro-3'-((3-(((R)-3-hydroxypyrrolidin-1-yl)methyl)-1,7-naphthyridin-8-yl)amino)-[1,1'-biphenyl]-3-yl)carbamoyl)-4,5,6,7-tetrahydropyrazolo[1,5-a]pyridin-4-yl)pyrrolidine-3-carboxylic acid]
10 to 100	O=C(Nc1cccc(-c2cccc(Nc3nccc4cc(CN5CC[C@@H](O)C5)cnc34)c2Cl)c1Cl)c1cc2n(n1)CCCC2NC(CO)CO (stereo partly drawn) [Compound 230, N-(2,2'-dichloro-3'-((3-(((R)-3-hydroxypyrrolidin-1-yl)methyl)-1,7-naphthyridin-8-yl)amino)-[1,1'-biphenyl]-3-yl)-4-((1,3-dihydroxypropan-2-yl)amino)-4,5,6,7-tetrahydropyrazolo[1,5-a]pyridine-2-carboxamide]
10 to 100	O=C(Nc1cccc(-c2cccc(Nc3nccc4cc(CN5CC[C@@H](O)C5)cnc34)c2Cl)c1Cl)c1cc2n(n1)CCCC2NC1CCOCC1 (stereo partly drawn) [Compound 231, N-(2,2'-dichloro-3'-((3-(((R)-3-hydroxypyrrolidin-1-yl)methyl)-1,7-naphthyridin-8-yl)amino)-[1,1'-biphenyl]-3-yl)-4-((tetrahydro-2H-pyran-4-yl)amino)-4,5,6,7-tetrahydropyrazolo[1,5-a]pyridine-2-carboxamide]
10 to 100	O=C(Nc1cccc(-c2cccc(Nc3nccc4cc(CN5CC[C@@H](O)C5)cnc34)c2Cl)c1Cl)c1cc2n(n1)CCCC2N1CC(O)C1 (stereo partly drawn) [Compound 232, N-(2,2'-dichloro-3'-((3-(((R)-3-hydroxypyrrolidin-1-yl)methyl)-1,7-naphthyridin-8-yl)amino)-[1,1'-biphenyl]-3-yl)-4-(3-hydroxyazetidin-1-yl)-4,5,6,7-tetrahydropyrazolo[1,5-a]pyridine-2-carboxamide]
